Results on nine compounds are retold here after patent US9725442B2, “Heterocyclic derivative having PGD2 receptor antagonist activity” (Shionogi & Co., Ltd., priority 2011, dated 2017).

A short description of data set [1]: Solubility test (1% DMSO addition, artificial intestinal juice pH 6.8). It is filed as physicochemical. Conditions: fassgf or other biorelevant, kinetic from dmso stock, artificial intestinal juice pH 6.8, 16 hours at 25° C. The protocol:
A 10 mmol/L solution of the compound of the present invention is prepared with DMSO, and 6 μL of the compound solution is added to 594 μL of an artificial intestinal juice (water and 118 mL of 0.2 mol/L NaOH reagent are added to 250 mL of 0.2 mol/L potassium dihydrogen phosphate reagent to reach 1000 mL) with a pH of 6.8. The mixture is left standing for 16 hours at 25° C., and the mixture is vacuum-filtered. The filtrate is two-fold diluted with methanol/water=1/1 (V/V), and the compound concentration in the filtrate is measured with HPLC or LC/MS/MS by the absolute calibration method.

Data set [2] deals with T1, CRTH2 (Homo sapiens (Human), UniProt Q9Y5Y4). Put plainly: CRTH2 inhibitory activity in human eosinophil (PGD2 induced eosinophil shape change). It is filed as cell-based. The settings on record: human peripheral blood, 40 nM PGD2, forward scatter; read-out: IC50, inhibition of PGD2 induced eosinophil shape change. The protocol:
CRTH2 inhibitory activity in human eosinophil was determined as inhibitory activity of PGD2 induced eosinophil shape change.
Human peripheral blood was mixed with compounds of the present invention at 37° C. After 5 min, the blood was treated with 40 nM of PGD2 for 10 min and fixed. The blood was hemolyzed and centrifuged. Blood cells were resuspended in PBS and measured forward scatter (FS) using flow cytometer (FACSAria). Inhibition ratio was defined by comparing FS with and without compound, and IC50 for each compound was calculated from inhibitory curve.

Data set [3] deals with T1, CRTH2. Put plainly: CRTH2 receptor binding inhibitory activity ([3H]-PGD2 displacement, membranes of CRTH2-expressing K562 cell). The settings on record: [3H]-PGD2 displacement, membrane of CRTH2-expressing K562 cell, read-out: Ki. In short, it runs like this: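 Incubation ran 60 min at room temperature using 20 μg/well membrane from CRTH2-expressing K562 cells in pH 7.4 Tris/HCl (50 mM) with 10 mM MgCl2.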

The next data set deals with Human DP1 receptor (Homo sapiens (Human), UniProt Q13258). Description: Human DP1 inhibitory activity in DP1-expressing cell (PGD2-induced cAMP). It is filed as cell-based. The protocol: Compounds were categorized as AA (cAMP is less than 100 nM) and A (cAMP is more than 100 nM and less than 5000 nM) as shown in Table 99 and 100.
The target in data set [4] is T1, CRTH2. Description: CRTH2 inhibitory activity in CRTH2-expressing cells (PGD2-induced intracellular calcium increase, K562). It is filed as cell-based. Conditions: 200 nM PGD2, read-out: IC50, inhibition of intracellular calcium concentration increase induced by PGD2. The protocol:
CRTH2 inhibitory activities of compounds were determined as inhibition activity of intra-cellular calcium concentration increase induced by PGD2 in CRTH2-expressing cells.
CRTH2-expressing K562 cells were suspended at concentration of 2×10^6 cells/ml in buffer (10 mM HEPES, pH 7.4, 0.1% Bovine serum albumin). Cells were incubated with […] (4 μM) for 30 min at room temperature. Cells were washed, resuspended and mixed with various concentration of compounds of the present invention. After 2 min, cells were treated with 200 nM of PGD2. Then intracellular calcium concentration was measured using intracellular ion analyzer (FDSS3000). Inhibition ratio was defined by comparing intracellular calcium concentration increase with and without compound, and IC50 for each compound was calculated from inhibitory curve.

For a further data set, the target named is DP receptor (Homo sapiens (Human), UniProt Q13258). Description: DP inhibitory activity in human platelets (PGD2-induced cAMP increase in platelet rich plasma, HTRF). It is filed as cell-based. Conditions: IC50 of PGD2 (300 nM)-induced cAMP increase, read-out: PRP. As for the experimental part:
Thirty milliliter of blood was drown from healthy human into a syringe preloaded with 1/9 volume of 3.8% citrate sodium. The blood was centrifuged with 180 g for 10 min at room temperature and the upper plasma layer was collected as platelet rich plasma (PRP). The PRP was transferred to plate and treated with 3-isobutyl-1-methylxanthin (IBMX; […]) for 5 min. Then the compounds of the present invention were added to the plate and after 10 min, 300 nM of PGD2 was added. The reaction was stopped with 1 mmol/l hydrogenchlolide after 2 min of PGD2 addition, and platelet was lysed by adding 12% Triton X-100. The concentration of cAMP in the supernatant of the platelet lysate was quantified using homogenous time resolved fluorescence (HTRF). Inhibition ratio was defined by cAMP increase with and without compound, and […] for each compound was calculated from inhibitory curve.

For data set [5], the target named is CYP3A4 enzyme expressed in Escherichia coli (Homo sapiens (Human), UniProt P08684). Description: CYP3A4 fluorescent MBI test. It is filed as in vitro ADME. Conditions: pre-reaction time 0 or 30 minutes, substrate 7-BFC; read-out: CYP3A4 MBI, difference between IC50 values with and without preincubation. The protocol:
The CYP3A4 fluorescent MBI test is a test of investigating enhancement of CYP3A4 inhibition of a compound by a metabolism reaction, and the test was performed using, as CYP3A4 enzyme expressed in Escherichia coli and employing, as an index, a reaction in which 7-benzyloxytrifluoromethylcoumarin (7-BFC) is debenzylated by the CYP3A4 enzyme to produce a metabolite, 7-hydroxytrifluoromethylcoumarin (HFC) emitting fluorescent light.
The reaction conditions were as follows: substrate, 5.6 μmol/L 7-BFC; pre-reaction time, 0 or 30 minutes; reaction time, 15 minutes; reaction temperature, 25° C. (room temperature); CYP3A4 content (expressed in Escherichia coli), at pre-reaction […], at reaction […] (at 10-fold dilution); concentration of a compound of the present, 0.625, 1.25, 2.5, 5, 10, 20 μmol/L (six points).
An enzyme in a K-Pi buffer (pH 7.4) and a compound solution of the present invention as a pre-reaction mixture were added to a 96-well plate at the composition of the pre-reaction, a part of it was transferred to another 96-well plate so that it was 1/10 diluted by a substrate in a K-Pi buffer, NADPH as a co-factor was added to initiate a reaction as an index (without preincubation) and, after a predetermined time of a reaction, acetonitrile/0.5 mol/L Tris(trishydroxyaminomethane)=4/1 (V/V) was added to stop the reaction. In addition, NADPH was added to a remaining preincubation solution to initiate a preincubation (with preincubation) and, after a predetermined time of a preincubation, a part was transferred to another plate so that it was 1/10 diluted with a substrate and a K-Pi buffer to initiate a reaction as an index. After a predetermined time of a reaction, acetonitrile/0.5 mol/L Tris(trishydroxyaminomethane)=4/1 (V/V) was added to stop the reaction. For the plate on which each index reaction had been performed, a fluorescent value of 7-HFC which is a metabolite was measured with a fluorescent plate reader. (Ex=420 nm, Em=535 nm).

Setting [6] is: CRTH2 receptor binding, categorized AAAA/AAA.
[7] abbreviates: IC50 of PGD2 (60 nM)-induced cAMP increase, human DP1 receptor expressing Jurkut cell.
Setting [8] is: category of cAMP IC50, human DP1 receptor expressing Jurkut cell.

Like-named read-outs stand apart in the source and are kept apart here.

Human DP1 receptor, sequence (Q13258 whole entry): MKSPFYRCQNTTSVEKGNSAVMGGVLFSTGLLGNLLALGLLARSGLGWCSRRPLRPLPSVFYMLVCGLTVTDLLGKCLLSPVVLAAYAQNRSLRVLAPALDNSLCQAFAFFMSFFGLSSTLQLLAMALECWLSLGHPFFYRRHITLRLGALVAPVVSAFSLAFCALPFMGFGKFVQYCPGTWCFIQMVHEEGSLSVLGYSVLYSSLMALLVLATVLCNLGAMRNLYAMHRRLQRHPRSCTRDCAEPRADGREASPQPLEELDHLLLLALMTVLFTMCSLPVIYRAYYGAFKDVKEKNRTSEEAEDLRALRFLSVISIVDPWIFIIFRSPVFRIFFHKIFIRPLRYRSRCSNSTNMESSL
DP receptor, sequence (Q13258 whole entry): as above
T1 sequence (Q9Y5Y4 whole entry): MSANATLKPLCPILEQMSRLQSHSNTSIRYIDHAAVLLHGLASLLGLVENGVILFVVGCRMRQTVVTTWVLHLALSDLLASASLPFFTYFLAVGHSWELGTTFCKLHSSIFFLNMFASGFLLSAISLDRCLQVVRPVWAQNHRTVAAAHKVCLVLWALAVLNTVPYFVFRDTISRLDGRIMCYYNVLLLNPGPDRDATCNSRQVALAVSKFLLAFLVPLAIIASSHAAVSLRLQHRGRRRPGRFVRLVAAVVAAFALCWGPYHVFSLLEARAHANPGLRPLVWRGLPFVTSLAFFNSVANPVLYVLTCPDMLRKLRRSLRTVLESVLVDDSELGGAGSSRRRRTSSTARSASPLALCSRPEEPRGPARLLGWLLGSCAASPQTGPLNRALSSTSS
CYP3A4 enzyme expressed in Escherichia coli, sequence (P08684 whole entry): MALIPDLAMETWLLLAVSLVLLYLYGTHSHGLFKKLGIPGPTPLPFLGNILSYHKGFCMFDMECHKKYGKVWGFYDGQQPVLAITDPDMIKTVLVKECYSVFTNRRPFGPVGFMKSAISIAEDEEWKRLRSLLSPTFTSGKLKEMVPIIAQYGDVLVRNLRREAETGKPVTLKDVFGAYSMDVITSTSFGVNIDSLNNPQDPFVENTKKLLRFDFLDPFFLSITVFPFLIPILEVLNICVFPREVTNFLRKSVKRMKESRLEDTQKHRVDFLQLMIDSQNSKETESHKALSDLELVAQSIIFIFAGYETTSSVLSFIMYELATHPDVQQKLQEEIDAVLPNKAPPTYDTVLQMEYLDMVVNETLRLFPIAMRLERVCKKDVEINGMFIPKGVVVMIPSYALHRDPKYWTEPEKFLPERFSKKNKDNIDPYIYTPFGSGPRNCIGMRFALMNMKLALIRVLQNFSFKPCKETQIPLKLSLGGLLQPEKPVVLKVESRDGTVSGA

In data set [1], `CC(C)Oc1ccc(S(=O)(=O)N2C[C@H](n3nc(CC(=O)O)c4ccc(F)cc43)[C@@](C)(F)C2)cc1` (racemic) [Compound I-85] returned a solubility at 16 h greater than 50 µM. In addition, the IC50 at CRTH2 [2] was 33 nM; against Human DP1 receptor (setting [7]), 19 nM; against Human DP1 receptor (setting [8]), less than 100 nM; at CRTH2 [4] it was 140 nM; at DP receptor, 210 nM. Moreover, the Ki was less than 100 nM at CRTH2 [3] (setting [6]) and 2.8 nM at CRTH2 [3].

As for `CC(C)Oc1ccc(S(=O)(=O)N2C[C@H](C)[C@@H](n3nc(CC(=O)O)c4ccc(F)cc43)C2)cc1` [Compound I-31], the IC50 is 13 nM at CRTH2 [2] and less than 100 nM against Human DP1 receptor (setting [8]). Further, the Ki at CRTH2 [3] (setting [6]) was less than 100 nM.

Consider `CCOc1ccc(S(=O)(=O)N2C[C@@H](C)[C@@H](n3nc(CC(=O)O)c4ccccc43)C2)cc1` [Compound I-97], for which the IC50 at CRTH2 [2] is 68 nM; on Human DP1 receptor (setting [8]), less than 100 nM; on CRTH2 [4], 92 nM. For the same compound, the Ki was less than 100 nM on CRTH2 [3] (setting [6]) and 13 nM at CRTH2 [3].

Take `CC(C)Oc1ccc(S(=O)(=O)N2C[C@@H](C)[C@@H](n3nc(CC(=O)O)c4ccc(F)cc43)C2)cn1` [Compound I-123]: the IC50 at CRTH2 [2] is 60 nM; against Human DP1 receptor (setting [7]) it was 31 nM; on Human DP1 receptor (setting [8]) it was less than 100 nM; on CRTH2 [4], 91 nM; on DP receptor it was 120 nM. The Ki at CRTH2 [3] (setting [6]) was less than 100 nM; at CRTH2 [3], 4.3 nM.

In the case of `CC(C)Oc1ccc(S(=O)(=O)N2C[C@@H](C)[C@@H](n3nc(CC(=O)O)c4ccc(C(F)(F)F)cc43)C2)cc1` [Compound I-130], the IC50 on CRTH2 [2] is 46 nM; at Human DP1 receptor (setting [7]) it was 10 nM; against Human DP1 receptor (setting [8]) it was less than 100 nM; at CRTH2 [4], 73 nM; at DP receptor, 240 nM. Further, the Ki at CRTH2 [3] (setting [6]) was less than 100 nM; at CRTH2 [3] it was 4.7 nM.

With `CC(C)Oc1ccc(S(=O)(=O)N2C[C@@H](C)[C@@H](n3nc(CC(=O)O)c4ccc(C(F)(F)F)cc43)C2)cn1` [Compound I-131], the Ki on CRTH2 [3] (setting [6]) is less than 100 nM; on CRTH2 [3] it was 7.4 nM. Moreover, the IC50 is 31 nM at Human DP1 receptor (setting [7]), less than 100 nM against Human DP1 receptor (setting [8]), 210 nM on CRTH2 [4] and 190 nM at DP receptor.

In the case of `CCOc1ccc(S(=O)(=O)N2C[C@@H](C)[C@@H](n3cc(CC(=O)O)c4ccc(C#N)cc43)C2)cc1` [Compound I-256], at CRTH2 [3] (setting [6]), the Ki was less than 100 nM. At Human DP1 receptor (setting [8]), this compound had an IC50 of less than 100 nM. For the same compound, the difference in IC50 with vs without preincubation in data set [5] was no more than 3000 nM.

On to `Cc1c(CC(=O)O)c2ccccc2n1[C@H]1CN(S(=O)(=O)c2ccc(F)cc2)C[C@H]1C` [Compound I-287], for which, at CRTH2 [3] (setting [6]), the Ki is less than 100 nM. The IC50 against Human DP1 receptor (setting [8]) was in the range of 100 to 5000 nM. Besides, in data set [5], the difference in IC50 with vs without preincubation was no more than 3000 nM.

`CCOc1ccc(S(=O)(=O)N2C[C@@H](C)[C@@H](n3c(C)c(CC(=O)O)c4ccccc43)C2)cc1` [Compound I-329]: on CRTH2 [3] (setting [6]), the inhibition constant Ki is less than 100 nM. At Human DP1 receptor (setting [8]), the IC50 was less than 100 nM. In addition, the difference in IC50 with vs without preincubation in data set [5] was no more than 3000 nM.

For orientation: solubility means the dissolved amount per volume that the medium holds. In general, Ki refers to a measure of affinity in units of concentration, obtained from inhibition or displacement.
